Data set [1] has as its target T1, human recombinant AChE (hAChE) (Homo sapiens, UniProt P22303).
T1 construct: purchased Sigma-Aldrich
Nature of the data set: biochemical. The protocol:
Ellman’s assay was followed to evaluate the anticholinesterasic potency of BCPOs using human recombinant AChE (Sigma-Aldrich). 500 U of hAChE were dissolved in 1 mL of a gelatine solution (1% in water) and diluted with demineralized water to give a stock solution of 5 U/mL. […] All assays were performed in 0.1 M phosphate buffer pH 8.0. The assayed compounds or blank (water) (25 µL) were incubated with the enzyme (20 µL) for 5 min at 37 °C in 765 µL of phosphate buffer prior to start the reaction. Then, 20 µL of DTNB and 20 µL of ATC were added. […] IC50 values were determined with GraphPad Prism 5. Each concentration was measured in triplicate. Data are expressed as mean ± SEM.

A further data set can be described thus: in vitro. The note with it: for Papp at 100 µM: PAMPA, pH 7.4; for BBB Penetration Estimation CNS (+/−): PAMPA-BBB class. The protocol:
Penetration across the BBB is an essential property for compounds targeting the CNS. […] The filter membrane of the donor plate was coated with PBL (Polar Brain Lipid, Avanti, AL, USA) in dodecane (4 µL of 20 mg/mL PBL in dodecane) and the acceptor well was filled with 300 µL of PBS pH 7.4 buffer ([…]). Tested compounds were dissolved first in DMSO and that diluted with PBS pH 7.4 to reach the final concentration 100 µM in the donor well. […] 300 µL of the donor solution was added to the donor wells ([…]) and the donor filter plate was carefully put on the acceptor plate so that coated membrane was “in touch” with both donor solution and acceptor buffer. Test compound diffused from the donor well through the lipid membrane (Area = 0.28 cm^2) to the acceptor well. The concentration of the drug in both donor and the acceptor wells was assessed after 3, 4, 5 and 6 h of incubation in quadruplicate using the UV plate reader Synergy HT (Biotek, Winooski, VT, USA) at the maximum absorption wavelength of each compound.

The target of data set [2] is T2, Recombinant human Aβ1–42 peptide (Homo sapiens, UniProt P05067).
T2 construct: Recombinant human 1,1,1,3,3,3-hexafluoro-2-propanol pretreated Aβ1–42 peptide; purchased Merck Millipore
In words: Inhibition of Aβ1-42 aggregation (Thioflavin-T fluorometric assay). The class given is biochemical. The note with it: for inhibition at 10 µM: 10 µM compound and 1.5 µM Aβ1-42, mean ± standard deviation of two independent experiments. The protocol: 2. Thioflavin-T (ThT) Fluorometric Assay
Recombinant human 1,1,1,3,3,3-hexafluoro-2-propanol pretreated Aβ1–42 peptide (Merck Millipore, Darmstadt, Germany) was dissolved in DMSO to give 75 µM stock solution. The stock solution was further diluted in HEPES buffered solu tion (150 mM HEPES, pH 7.4, 150 mM NaCl), to 7.5 µM. Aβ1–42 solution was then added to the test compounds in black-walled 96-well plate, and diluted with ThT solution (final concentration of ThT was 10 µM). Final mixture contained 1.5 µM Aβ1–42, 10 µM of test compounds, and 3% DMSO. ThT fluorescence was measured every 5 min (λex = 440 nm, λem = 490 nm), with the medium continuously shaking between measurements using a 96-well microplate reader (Synergy™ H4, BioTek Instruments, Inc., Winooski, VT, USA). The fluorescence intensities at the plateau reached after 24 h in the absence and presence of the test compound were averaged, and the average fluorescence of the corresponding wells at t = 15 min was subtracted. The Aβ1–42 aggregation inhibitory potency is expressed as the percentage inhibition (% inh = (1 − Fi/F0) × 100%), where Fi is the increase in fluorescence of Aβ1–42 treated with the test compound, and F0 is the increase in fluorescence of Aβ1–42 alone.
1. LeVine, H. Thioflavine T interaction with synthetic Alzheimer’s disease beta-amyloid peptides:
Detection of amyloid aggregation in solution. Protein Sci. Publ. Protein Soc. 1993, 2, 404–410.

In data set [3] the target is T1, human recombinant AChE (hAChE). In words: Kinetic characterization of hAChE inhibition (Lineweaver-Burk). The class given is biochemical. The protocol:
To get insight into the mode of inhibition, the kinetic mechanism of hAChE inhibition by compound 3Bb was investigated through classical Lineweaver-Burk double reciprocal plots.
To estimate the type of inhibition of hAChE, we performed the same experimental protocol as reported for hAChE inhibition. […]. The stock solution of ATC (0.5 mM in a well) was prepared in demineralized water and diluted before use to obtain 0.4, 0.3, 0.2, 0.1 and 0.067 mM substrate solutions. The double reciprocal plots were analysed by a weighted least square procedure that assumed the variance of V to be constant. Each experiment was performed in triplicate. To confirm the mode of inhibition, Cornish-Bowden plots were obtained by plotting S/V (substrate/velocity ratio) versus the inhibitor concentration. Data analysis was performed with GraphPad Prism 5. Inhibition constant (Ki) values were determined by re-plotting slopes from the Lineweaver-Burk plot versus the inhibitor concentration where Ki was determined as the intersect of the line with the x-axis.

Data set [4] is described as follows: Solubility in DMSO (footnote remark). The class given is physicochemical. Conditions: DMSO at 10 mM and 1 mM.

The values below come from publication PMC6273488, “Synthesis and Biological Evaluation of Benzochromenopyrimidinones as Cholinesterase Inhibitors and Potent Antioxidant, Non-Hepatotoxic Agents for Alzheimer’s Disease” (Molecules, 2016).

For orientation: IC50 means the point on the concentration scale where inhibition reaches its midpoint. A word on the Papp: it is the rate of passage across a membrane or cell layer, normalised by area and donor concentration. As usually defined, the inhibition is the percentage by which the read-out fell short of the control. A word on the Ki: it is a measure of affinity in units of concentration, obtained from inhibition or displacement.

Entries after “also recorded” stand apart in the source; their conditions may differ. Where two headings read alike, the source gives them in different places.

T2 sequence (P05067 672-713): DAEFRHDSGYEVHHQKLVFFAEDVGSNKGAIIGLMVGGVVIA
T1 sequence (P22303 32-614): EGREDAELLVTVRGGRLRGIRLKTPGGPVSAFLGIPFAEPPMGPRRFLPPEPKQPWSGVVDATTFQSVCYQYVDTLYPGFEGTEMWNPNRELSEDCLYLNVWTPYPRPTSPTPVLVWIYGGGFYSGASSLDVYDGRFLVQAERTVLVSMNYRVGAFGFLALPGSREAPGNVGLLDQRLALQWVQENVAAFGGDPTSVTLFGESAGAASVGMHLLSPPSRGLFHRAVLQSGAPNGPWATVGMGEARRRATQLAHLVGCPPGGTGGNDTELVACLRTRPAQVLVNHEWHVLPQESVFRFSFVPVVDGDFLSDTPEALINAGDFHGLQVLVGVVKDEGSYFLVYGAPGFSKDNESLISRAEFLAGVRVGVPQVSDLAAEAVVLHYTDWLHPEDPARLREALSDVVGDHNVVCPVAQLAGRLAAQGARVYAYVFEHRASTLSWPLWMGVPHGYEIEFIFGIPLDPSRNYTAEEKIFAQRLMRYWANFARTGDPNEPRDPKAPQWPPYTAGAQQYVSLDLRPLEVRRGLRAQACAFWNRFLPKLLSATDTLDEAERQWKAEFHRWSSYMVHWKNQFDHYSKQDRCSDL

Turning to `O=c1c2c(nc3n1CCCC3)Oc1ccc3ccccc3c1C2c1ccccc1` (stereo not shown) [3Ab, 15-Phenyl-10,11,12,15-tetrahydro-9H-benzo[5,6]chromeno[2,3-d]pyrido[1,2-a]pyrimidin-14-one], the half-inhibitory concentration (IC50) in data set [1] (mean ± SEM) was 3660 ± 59 nM. In the data set “in vitro”, the Papp at 100 µM turned out to be 7.2 ± 0.6 ×10⁻⁶ cm/s and the “BBB Penetration Estimation CNS (+/−)” value is “CNS (+) (‘CNS (+)’ (high BBB permeability predicted); Pe (10^−6 cm·s^−1) > 4.0)”. In addition, in data set [2] (10 µM compound), the “Aβ1–42 aggregation inhibition (in words)” value was “weak inhibition power”. Also, the inhibition at 10 µM in data set [2] came out at 13.6 ± 2.1%.

Regarding `COc1cccc(C2c3c(nc4n(c3=O)CCC4)Oc3ccc4ccccc4c32)c1` (stereo not shown) [3Ba, 14-(3′Methoxyphenyl)-10,11-dihydro-14H-benzo[5,6]chromeno[2,3-d]pyrrolo[1,2-a]pyrimidin-13(9H)-one], in data set [1] (mean ± SEM), the IC50 worked out at 1530 ± 25 nM. In addition, in the data set “in vitro”, the Papp at 100 µM turned out to be 4.6 ± 0.77 ×10⁻⁶ cm/s and the “BBB Penetration Estimation CNS (+/−)” value is reported as “CNS (+) (‘CNS (+)’ (high BBB permeability predicted); Pe (10^−6 cm·s^−1) > 4.0)”. In data set [2], the inhibition at 10 µM is below 10%.

Regarding `COc1cccc(C2c3c(nc4n(c3=O)CCCC4)Oc3ccc4ccccc4c32)c1` (stereo not shown) [3Bb, 15-(3′-Methoxyphenyl)-10,11,12,15-tetrahydro-9H-benzo[5,6]chromeno[2,3-d]pyrido[1,2-a]pyrimidin-14-one], the IC50 in data set [1] amounted to 1280 ± 30 nM. The IC50 in data set [1] (mean ± SEM) stood at 1280 ± 32 nM. Besides, in data set [3] (Lineweaver-Burk double reciprocal plot), the “mode of hAChE inhibition” value is listed as “mixed-type inhibition; also recorded: mixed-type hAChE inhibitor”. Further, the Ki in data set [3] (estimated from Lineweaver-Burk replots, read-out: Ki (dissociation constant for the enzyme-inhibitor complex)) is 380 nM. In the data set “in vitro”, the Papp at 100 µM was found to be 3.6 ± 0.57 ×10⁻⁶ cm/s and the “BBB Penetration Estimation CNS (+/−)” value is on record as “CNS (+/−) (‘CNS (+/−) (BBB permeability uncertain); Pe (10^−6 cm·s^−1) from 4.0 to 2.0)”. In data set [2], the inhibition at 10 µM was below 10%.

`Cc1ccc(C2c3c(nc4n(c3=O)CCCC4)Oc3ccc4ccccc4c32)cc1` (stereo not shown) [3Cb, 15-(4′-Methylphenyl)-10,11,12,15-tetrahydro-9H-benzo[5,6]chromeno[2,3-d]pyrido[1,2-a]pyrimidin-14-one]: in data set [1] (mean ± SEM), the IC50 was 1590 ± 24 nM. For the same compound, in data set [2], the inhibition at 10 µM is below 10%. For the same compound, in data set [4], the “solubility in DMSO (in words)” value is “poor solubility in DMSO at 10 mM and 1 mM”.
